One assay concerns Enterobacter cloacae P99. As to the kind of experiment: Minimum Inhibitory Concentration (MIC) by serial dilution in agar. The class given is cell-based. As for the experimental part:
(§1) Minimum Inhibitory Concentration (MIC) values of compounds of the invention against Enterobacter cloacae P99 and Pseudomonas aeruginosa Charlier were determined by serial dilution in agar. The plates were inoculated with 10⁴ colony forming units and incubated overnight at 37°C. The MIC values recorded in Table 1 were the lowest concentration of antibiotic to inhibit growth. Comparative data for 7β-[2-(3,4-diacetoxyphenyl)-2-[4-ethyl-2,3-dioxopiperazin-1-yl)carbonylamino]-acetamido]-7α-formamido-3-[1-methyl-1H-tetrazol-5-yl) thiomethyl]ceph-3-em-4-carboxylic acid, sodium salt (compound A), disclosed in European Patent Application No.82303821.1 (Publication Number 0 071 395; Example 57), are also given.

The test system of assay [1] is Pseudomonas aeruginosa Charlier. Described as above. The assay is classed as cell-based. The settings on record: 10⁴ colony forming units, incubated overnight at 37°C, lowest concentration to inhibit growth. The method, then:
as §1

SMILES strings stand for the structures. Structures can show the parent of a compound that is named as a salt.

As a reminder, the MIC is the least concentration at which growth counts as inhibited. High values mean weaker potency, low ones greater potency. In the case of `CCN1CCN(C(=O)NC(C(=O)N[C@]2(NC=O)C(=O)N3C(C(=O)O)=C(CSc4nnnn4C)CS[C@@H]32)c2ccc(OC(C)=O)c(OC(C)=O)c2)C(=O)C1=O` (stereo partly drawn) [Compound A, 7β-[2-(3,4-diacetoxyphenyl)-2-[4-ethyl-2,3-dioxopiperazin-1-yl)carbonylamino]acetamido]-7α-formamido-3-[1-methyl-1H-tetrazol-5-yl) thiomethyl]ceph-3-em-4-carboxylic acid, sodium salt, reference compound], the minimal inhibitory concentration (MIC) against Enterobacter cloacae P99 stood at 8 µg/mL; in assay [1], 4 µg/mL.
For the compound `CCN1CCN(C(=O)N[C@@H](C(=O)N[C@]2(NC=O)C(=O)N3C(C(=O)O)=C(CSc4nnnn4N)CS[C@@H]32)c2ccc(OC(C)=O)c(OC(C)=O)c2)C(=O)C1=O` [Example 1, Sodium 3-[(1-Amino-1H-tetrazol-5-yl)thiomethyl]-7β-[D-2-(3,4-diacetoxyphenyl)-2-[(4-ethyl-2,3-dioxopiperazin-1-yl)carbonylamino]acetamido]-7α-formamidoceph-3-em-4-carboxylate], the MIC (in the assay with Enterobacter cloacae P99; in assay [1]) was 2 µg/mL each time.
With `CCN1CCN(C(=O)N[C@@H](C(=O)N[C@]2(NC=O)C(=O)N3C(C(=O)O)=C(CSc4nnnn4N)CS[C@@H]32)c2ccc(O)c(O)c2)C(=O)C1=O` [Example 2, Sodium 3-[(1-Amino-1H-tetrazol-5-yl)thiomethyl]-7β-[D-2-(3,4-dihydroxyphenyl)-2-[(4-ethyl-2,3-dioxopiperazin-1-yl)carbonylamino]acetamido]-7α-formamidoceph-3-em-4-carboxylate], the MIC with Enterobacter cloacae P99 came to 4 µg/mL; in assay [1] it was 2 µg/mL.

Values taken from patent EP0308559A2, “Cephalosporins, process for their preparation, pharmaceutical compositions containing them and intermediates” (BEECHAM GROUP PLC, priority 1987, dated 1989).
